Drawing on the METLIN SMRT retention time set (Domingo-Almenara et al. 2019), this text covers RP-LC retention time for 80 compounds.

A short description of the data set: gradient 5% acetonitrile 3 min, to 50% in 2 min, to 85% in 15 min, held 3 min, 100 µL/min. To be noted: column: Zorbax Extend-C18 2.1 x 50 mm; eluents: water / acetonitrile, 0.1% formic acid. Put shortly:
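The mobile phases were water and acetonitrile, each with 0.1% formic acid, pumped at 100 μL/min through a Zorbax Extend-C18 column (2.1 × 50 mm, 1.8 μm). Pure standards were injected as mixtures of ~100 molecules and detected by a quadrupole time-of-flight mass spectrometer in positive and negative ionization mode. Retention time came from computationally picked adduct peaks, each inspected by hand.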
Turning to `CCc1nnc(-c2ccc(S(=O)(=O)N3CCN(CC(C)C)CC3)o2)o1`, the RP-LC retention time was determined as 612 s.

Take `CN(C)CC1CN(C(=O)c2cc(F)ccc2F)CC12CCOCC2` (stereo not given): the RP-LC retention time amounted to 572 s.

`COc1ccc(C(=O)Nc2c(-c3ccccc3)nc3ccccn23)cc1OC` came in with an RP-LC retention time of 608 s.

The compound `O=C(c1cccc(Br)c1)N1CCc2nc(-c3ccccc3)ncc2C1` gave an RP-LC retention time of 1020 s.

Consider `O=C(O)CN1C(=O)CN=C(c2ccccn2)c2cc(Cl)ccc21`, for which the RP-LC retention time was determined as 696 s.

As for `CCN(CC)C(=O)Cn1nc(-c2nc(-c3ccc(C)cc3)no2)c2ccccc21`, the RP-LC retention time is 1150 s.

Regarding `Cn1cc(Cl)c(C(=O)N2CCCC2c2cccc(F)c2)n1` (stereo not given), the RP-LC retention time came out at 807 s.

Regarding `O=S(=O)(NC1CCCN(c2cc(-c3ccncc3)[nH]n2)C1)c1ccc(Cl)cc1` (stereo not given), the RP-LC retention time worked out at 579 s.

Compound `CCCN(CC1CCOC1)C(=O)Nc1cc(F)ccc1F` (stereo not given) had an RP-LC retention time of 844 s.

In turn, `Cn1nc(C(=O)N2CCCC2)c2c1CCN(C(=O)CCC(=O)NCCc1c[nH]c3ccccc13)C2` showed an RP-LC retention time of 685 s.

On to `COCCCNC(=O)C1CCN(S(=O)(=O)N(CC(C)C)CC(C)C)CC1`, for which the RP-LC retention time was 877 s.

`O=C(c1cccc(F)c1)N1CCN(c2cc(-c3cccs3)[nH]n2)CC1` registered an RP-LC retention time of 774 s.

Turning to `CCn1cc(-c2nc(C(=O)Nc3cc(Cl)ccc3OC)cs2)c2cccnc21`, the RP-LC retention time was 1360 s.

`COc1ccc(CNC(=O)C2(C)CCN(C(=O)Nc3ccccc3C(F)(F)F)CC2)cc1` showed an RP-LC retention time of 834 s.

`Cc1c(C(=O)N(C)C)cnn1-c1ccc(-c2nc(C3CC3)no2)cn1` had an RP-LC retention time of 790 s.

The compound `CN(C)C(=O)c1n[nH]c2c1CN(C(=O)c1cc(F)ccc1F)CC2` came in with an RP-LC retention time of 617 s.

The compound `COc1cc(NC(=O)N2CCN(c3cc(-c4cccc(OC)c4)ncn3)CC2)cc(OC)c1` came in with an RP-LC retention time of 620 s.

`CN(C)C(=O)Cn1c(=O)c2cccn2c2ccccc21`: the RP-LC retention time turned out to be 666 s.

In turn, `Cc1cccc(S(=O)(=O)N2CCCC(Cn3c(C)nc4cccnc43)C2)c1` (stereo not given) returned an RP-LC retention time of 821 s.

In turn, `CS(=O)(=O)NCC1CCC(C(=O)Nc2cccc3nsnc23)CC1` (stereo not given) gave an RP-LC retention time of 700 s.

`Cc1ccc(-c2noc(C3CCCN3S(=O)(=O)c3cccc(Cl)c3C)n2)cc1` (stereo not given) showed an RP-LC retention time of 1270 s.

Take `CCn1cc(S(=O)(=O)N2CCO[C@@H](COc3ccccn3)[C@@H]2c2ccccc2)cn1`: the RP-LC retention time is 898 s.

On to `O=C(Cn1cnc2ccccc2c1=O)N[C@@H](Cc1ccccc1)C(=O)O`, for which the RP-LC retention time came to 671 s.

Turning to `Cc1ccc(S(=O)(=O)N2CCC(C(=O)NCCc3csc(-c4cccs4)n3)CC2)c(C)c1`, the RP-LC retention time amounted to 955 s.

The compound `Cc1ccn2c(Nc3ccc(Cl)cc3)c(-c3ccc(N4CCOCC4)cc3)nc2c1` showed an RP-LC retention time of 967 s.

With `CCOc1ccc(N2CC(c3nnc(NC(=O)c4ccc(Br)cc4)o3)CC2=O)cc1` (stereo not given), the RP-LC retention time worked out at 805 s.

As for `Cc1c(C(=O)N2CCSCC2)cnn1-c1cc(-c2nc(C(C)(C)C)no2)ccn1`, the RP-LC retention time stood at 1070 s.

Compound `C#CCCNC(=O)c1ccc(C)c(C)c1` yielded an RP-LC retention time of 720 s.

With `Clc1ccc(Cc2nc3nc4c(c(N5CCN(c6ccccn6)CC5)n3n2)CCCC4)cc1`, the RP-LC retention time stood at 718 s.

The compound `Cn1ncc2c3ccccc3n(CCCC(=O)NCc3ccccc3)c2c1=O` came in with an RP-LC retention time of 810 s.

Compound `COc1ccc(-c2ncc3c(n2)CCN(S(=O)(=O)c2ccc(C)cc2)C3)cc1` came in with an RP-LC retention time of 1050 s.

Compound `Cc1ccc(Cn2nc(C(=O)N3CCCc4cc(C)ccc43)ccc2=O)cc1` showed an RP-LC retention time of 946 s.

With `Cc1cccc(CNC(=O)c2cc(C(C)(C)C)n3nccc3n2)c1`, the RP-LC retention time came out at 1230 s.

With `CCCCN1CCN(Cc2nc(-c3ccc(N4CCSCC4)nc3)no2)CC1`, the RP-LC retention time was 653 s.

Take `NC(=O)C1CCN(S(=O)(=O)Cc2c(F)cccc2Cl)CC1`: the RP-LC retention time was 649 s.

`Cc1cc(C)c(S(=O)(=O)N2CCC(C(=O)NCc3csc(-c4ccccc4)n3)CC2)c(C)c1` displayed an RP-LC retention time of 1050 s.

In the case of `O=c1c(NC2CCCCCC2)nc2ccncc2n1Cc1ccccc1`, the RP-LC retention time turned out to be 807 s.

Compound `Cc1c(C(=O)C(=O)NCC2COc3ccccc3O2)c2ccccc2n1C` (stereo not given) returned an RP-LC retention time of 777 s.

The compound `O=C(Cc1ccsc1)NC1CCN(c2ccc(=O)n(CCOc3ccccc3)n2)C1` (stereo not given) displayed an RP-LC retention time of 750 s.

`O=S(=O)(c1ccc(Cl)cc1)N1CC(F)(F)C[C@H]1CN1CCc2ccccc2C1` gave an RP-LC retention time of 647 s.

For the compound `CCC(C)Nc1nc(-c2ccc(Cl)cc2)nc2ccccc12` (stereo not given), the RP-LC retention time was 822 s.

With `O=C(Cn1c2ccccc2c2ncn(Cc3nc(C4CC4)no3)c(=O)c21)NC1CCCC1`, the RP-LC retention time came out at 819 s.

Compound `O=C(CN1CCN(Cc2ccc(F)cc2)C1=O)NCc1ccc(F)cc1Cl` showed an RP-LC retention time of 844 s.

In turn, `Cc1noc(C2(NC(=O)Cc3ccc(F)cc3)CCCCC2)n1` gave an RP-LC retention time of 837 s.

The compound `CCc1ccc(NC(=O)C2CC(=O)N(c3n[nH]c4cccc(F)c34)C2)cc1` (stereo not given) displayed an RP-LC retention time of 847 s.

In turn, `CCOC(=O)c1nc(N2CCOCC2)c2ccccc2n1` gave an RP-LC retention time of 626 s.

Take `COc1ccc(CNC(=O)Cc2csc3nc(-c4ccc(OC)c(OC)c4)cn23)cc1OC`: the RP-LC retention time came out at 648 s.

`O=C(Nc1ccc(F)cc1Cl)c1cnc(-c2ccccc2)nc1-c1ccncc1` displayed an RP-LC retention time of 976 s.

`COc1ccc(OC)c(NC(=O)Cn2nc3n(c2=O)CCCCC3)c1` had an RP-LC retention time of 715 s.

For `CCC(=O)N1CCc2c(C(=O)N3CCN(c4cc(C)ccc4C)CC3)cccc21`, the RP-LC retention time was found to be 1040 s.

On to `O=C1NCCCn2cc(S(=O)(=O)NCc3ccc(OC(F)(F)F)cc3)cc21`, for which the RP-LC retention time was 740 s.

In the case of `O=C(NCC(=O)N1CCCc2ccccc21)c1ccc(Cl)cc1`, the RP-LC retention time is 835 s.

`COC(=O)c1ncn2c1C(=O)N(c1ccc(C)c(C)c1)C(C)(C(=O)NCc1ccccc1)C2` (stereo not given): the RP-LC retention time turned out to be 735 s.

The compound `Cc1ccc(CNC(=O)N2CCc3c(c(-c4nc(C)no4)nn3C)C2)cc1` gave an RP-LC retention time of 738 s.

Consider `Cc1sc(NC(=O)c2ccco2)nc1-c1ccc2c(c1)N(C)C(=O)CO2`, for which the RP-LC retention time was found to be 844 s.

With `Cc1cc(C)n(-c2nc(C)c(C(=O)Nc3ccc(N(C)C)cc3)s2)n1`, the RP-LC retention time worked out at 737 s.

As to `Cc1noc(CNC(=O)C2CCN(C(=O)c3snnc3C)CC2)n1`, the RP-LC retention time worked out at 563 s.

Compound `Cc1ncc2c(n1)C[C@@H]1CC[C@H]2N1S(=O)(=O)c1ccc(F)c(C)c1` had an RP-LC retention time of 732 s.

Compound `O=C(c1ccco1)N1CCc2nc(OCC3CC3)ccc2C1` gave an RP-LC retention time of 821 s.

In the case of `COc1ccc(C(=O)Nc2nnc(SCc3ccccc3Cl)s2)cc1OC`, the RP-LC retention time is 954 s.

Turning to `O=C(Cc1ccccc1)N1CCN(c2nc(CN3CCOCC3)cs2)CC1`, the RP-LC retention time turned out to be 614 s.

Compound `COc1ccc(-c2cc3n(n2)CCCN(C(=O)c2cc4ccccc4[nH]2)C3)cc1` yielded an RP-LC retention time of 893 s.

`CCn1c(=O)c(C)nc2cc(-c3noc(/C=C/c4ccc(C)cc4)n3)ccc21`: the RP-LC retention time worked out at 1170 s.

`O=C(c1ccc2c(c1)OCO2)N1CCC2(CC1)NC(=O)N(Cc1cccc(Cl)c1)C2=O` had an RP-LC retention time of 840 s.

The compound `Cc1ccc(NC(=O)C2CCN(c3cc(N4CCSCC4)ncn3)CC2)cc1F` yielded an RP-LC retention time of 734 s.

For the compound `O=c1cc(-c2ccncc2)nc(N2CCCC2)n1Cc1ccccc1`, the RP-LC retention time came out at 1200 s.

As to `Cc1ccc2[nH]cc(CCNC(=O)C3CCCN(C(=O)c4[nH]c(C)cc4C)C3)c2c1` (stereo not given), the RP-LC retention time stood at 832 s.

In the case of `COc1cc(OC)c(Nc2cc(C)nc3nc(-c4ccc(C)cc4)nn23)cc1Cl`, the RP-LC retention time was found to be 1060 s.

As for `Cc1nnc(N2CCCC(C(=O)N3CCCCC3)C2)c2nn(-c3ccccc3)c(C)c12` (stereo not given), the RP-LC retention time came to 686 s.

As for `Fc1cc(F)cc(-c2nnc(Cc3nc(-c4ccccc4Cl)no3)o2)c1`, the RP-LC retention time worked out at 1050 s.

As for `Cc1cccc(C)c1NC(=O)CSc1ccc(N2CCCC(C(=O)NC3CC3)C2)nn1` (stereo not given), the RP-LC retention time is 628 s.

Compound `COc1cccc(NC(=O)Cn2nc3cc(C)nc(Nc4cc(C)cc(C)c4)n3c2=O)c1` yielded an RP-LC retention time of 1110 s.

Regarding `CN1CCCc2cc(C(=O)NC3CCCCC3)sc21`, the RP-LC retention time was 934 s.

As for `CC(C)Cn1c(-c2ccccc2)nc2ccccc21`, the RP-LC retention time stood at 675 s.

For `CCn1cc(-c2nc(CC(=O)Nc3ccc(F)cc3F)cs2)c2cccnc21`, the RP-LC retention time was 992 s.

Turning to `COC(=O)c1ccccc1Nc1c(-c2ccc(C)cc2)nc2cnccn12`, the RP-LC retention time amounted to 875 s.

`CNC(=O)c1nc(C(C)(C)NC(=O)c2ccnn2C)nc2c1OCO2` had an RP-LC retention time of 603 s.

Take `Cn1c(=O)sc2cc(S(=O)(=O)N3CCC(C(=O)NCCN4CCCCCC4)CC3)ccc21`: the RP-LC retention time came out at 623 s.

For the compound `Cc1cc(-c2csc(S(=O)(=O)N(Cc3ccco3)C3CCCC3)c2)on1`, the RP-LC retention time amounted to 1110 s.

Consider `CCOC(=O)[C@H]1[C@H]2C=C[C@]3(CN(c4ccccc4C)C(=O)[C@@H]13)O2`, for which the RP-LC retention time is 717 s.
